Read-outs that look alike come from different tables or passages of the source. Where no end group is shown, it is not given here. [ ]: non-standard residue; d: D form. pY = N[C@@H](Cc1ccc(OP(=O)(O)O)cc1)C(=O)O; pT = C[C@@H](OP(=O)(O)O)[C@H](N)C(=O)O; pS = N[C@@H](COP(=O)(O)O)C(=O)O
Key:
[1] = target: T1, TRAP isolated from rat bone (BoneTRAP) (Rattus norvegicus, UniProt P29288); experiment: Substrate specificity of bone TRAP (phosphatase assay); format: biochemical; conditions: for Ratio Bone/Bac: Kcat/Km BoneTRAP over BacTRAP
T1 construct: from tissue; host or cells: long bones of 3 week old Sprague Dawley rats
T1 sequence (P29288 23-327): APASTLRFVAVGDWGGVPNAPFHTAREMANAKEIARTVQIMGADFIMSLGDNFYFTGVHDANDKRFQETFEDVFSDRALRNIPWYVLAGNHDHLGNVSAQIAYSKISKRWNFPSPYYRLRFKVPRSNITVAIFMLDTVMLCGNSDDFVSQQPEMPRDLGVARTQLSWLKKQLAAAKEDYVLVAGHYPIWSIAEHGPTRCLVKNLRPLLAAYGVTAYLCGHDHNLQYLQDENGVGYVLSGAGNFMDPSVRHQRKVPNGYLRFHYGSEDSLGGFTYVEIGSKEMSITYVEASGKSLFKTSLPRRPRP
T1 sequence (P29288 184-327): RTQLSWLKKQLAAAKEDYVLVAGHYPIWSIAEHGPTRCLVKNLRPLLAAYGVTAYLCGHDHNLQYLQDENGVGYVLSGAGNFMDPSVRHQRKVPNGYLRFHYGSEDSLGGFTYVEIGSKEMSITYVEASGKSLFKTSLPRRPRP
Description: (§1) The substrates were dissolved in incubation medium containing the same buffer as in the pNPP-assay. […] A phosphate standard curve […] was always run in parallel. […] In order to validate whether the structural alterations induced by proteolytic cleavage of the monomeric TRAP was generally affecting known substrates for TRAP and not restricted to the non-physiological substrate pNPP, we surveyed a number of different phosphoaminoacids, phosphopeptides and the phosphoprotein osteopontin as substrates for the TRAPs (See Table II).

[2] = target: T2, recombinant rat TRAP produced using Baculovirus expression system (BacTRAP) (Rattus norvegicus, UniProt P29288); experiment: Substrate specificity of recombinant TRAP (phosphatase assay); format: biochemical
T2 construct: made in house
T2 sequence (P29288 23-327): T1 sequence (P29288 23-327)
Description: as §1

[3] = target: T3, intact recombinant TRAP (baculoTRAP) (Rattus norvegicus, UniProt P29288); experiment: Preincubation with reducing agents, intact recombinant TRAP; format: biochemical; conditions: ascorbate 1 mM in the presence of 0.1 mM FeCl3
T3 construct: made in house
T3 sequence (P29288 23-327): T1 sequence (P29288 23-327)
Description: (§2) P-nitrophenylphosphosphatase activity was assayed in 96-well plates using the p-nitrophenylphosphate (pNPP) as substrate in the incubation medium (150 μl) containing (final concentrations); 10 mM pNPP, 0.1 M sodium acetate pH 5.8, 0.15 M KCl, 0.1% Triton X-100, 10 mM sodium tartrate, 1 mM ascorbic acid and 0.1 mM FeCl3. The p-nitrophenol liberated after 1 hour of incubation at 37° C. was converted into p-nitrophenylate by the addition of 100 μl of 0.3 M NaOH, and the absorbance was read at 405 nm. For absorbance reading a Spectramax 250 spectrophotometer (Molecular Devices, Sunnyvale, Calif.) was used.
(§3) c) BaculoTRAP digested with papain or trypsin were compared with undigested baculoTRAP and bone TRAP. Ascorbic acid and FeCl3 were used as reducing agents during preincubation of TRAP for indicated time intervals in a total volume of 70 μl with (final concentrations); 1 mM ascorbic acid, 0.1 mM FeCl3, 0.15 M KCl, 10 mM sodium tartrate, 0.1% Triton X-100. Except for a substrate incubation time of 10 min, TRAP activity was measured after the addition of 80 μl of substrate solution as described under Materials and Methods.

[4] = target: T4, rat bone TRAP (Rattus norvegicus, UniProt P29288); experiment: Preincubation with reducing agents, bone TRAP; format: biochemical
T4 construct: from tissue; host or cells: long bones of 3 week old Sprague Dawley rats
T4 sequence (P29288 23-327): T1 sequence (P29288 23-327)
T4 sequence (P29288 184-327): T1 sequence (P29288 184-327)
Description: as §2, §3

[5] = target: T5, BoneTRAP (Rattus norvegicus, UniProt P29288); experiment: pNPP hydrolysis by bone TRAP; format: biochemical; conditions: BoneTRAP untreated
T5 construct: from tissue; host or cells: long bones of 3 week old Sprague Dawley rats
T5 sequence (P29288 23-327): T1 sequence (P29288 23-327)
T5 sequence (P29288 184-327): T1 sequence (P29288 184-327)
Description: Bone TRAP was purified from the long bones of 40 3 week old Sprague Dawley rats. All operations were performed at 4° C. The dissected bones, free from soft tissue, were cut into small pieces and placed in homogenization solution with protease inhibitors (3 ml/g bone); 0.15 M KCl, 0.1% Triton X-100, Pefabloc (1 mg/ml), Pepstatin A (10 μg/ml), E-64 (10 μg/ml) and 5 mM EDTA. A Polytron homogenizer (Brinkman Instruments Westbury, N.Y.) was used for homogenization during 10 seconds, with 1 minute intervals, until a homogenous suspension was achieved. The homogenate was cleared by centrifugation at 3,200×g for 30 min. 5 % protamine sulfate was added dropwise to the supernatant during continous stirring to a final concentration of 0.5%, with further stirring for 30 min. […]
as §2, with “used. […]” for “used.”

[6] = target: T6, BacTRAP + papain (Rattus norvegicus, UniProt P29288); experiment: pNPP hydrolysis by papain-digested recombinant TRAP; format: biochemical
T6 construct: made in house; host or cells: recombinant Baculovirus-infected cells; then digested with papain-agarose
T6 sequence (P29288 23-327): T1 sequence (P29288 23-327)
T6 sequence (P29288 184-327): T1 sequence (P29288 184-327)
Description: as §2
(§4) 1 U of p-nitrophenylphosphatase activity corresponds to 1 μmole of p-nitrophenol liberated per minute at 37° C. […] The substrates were dissolved in incubation medium containing the same buffer as in the pNPP-assay. After 1 hour of incubation (final volume 50 μl) at 37° C. the assay was stopped by addition of 50 μl of color reagens (0.12% Malachite-green in 3 M H2SO4/7.5% ammomium molybdate/11% Tween-20; 10:2.5:0.2). A phosphate standard curve (0-nmol) was always run in parallel. After color development for 10 min the absorbance at 630 nm was measured using a Spectramax 250 spectrophotometer.
Proteolytic Digestion of TRAP 25 μg baculoTRAP or bone TRAP were digested with […] papain-agarose in 500 μl of incubation solution; 10 mM sodium acetate, pH 4.6, 0.1% Triton X-100 and 2 mM DTT. Incubation was performed at room temperature for 24 h, with constant mixing of the gel. 25 μg baculo TRAP or bone TRAP were digested with 100 μl (5units) trypsin-agarose in 500 μl of incubation solution; 10 mM Tris pH 7.0 and 0.1% Triton X-100.
Incubation was performed at room temperature for 1 h with the suspension kept well mixed during the reaction period. The proteolytic digestions above were stopped by centrifugation and the cleavage products of TRAP in the supernatant were further analyzed. Digestion of baculo TRAP or bone TRAP with cathepsin B were performed at (final concentrations); 10 ng TRAP/μl, 0.4 mU cathepsin B/μl, 2 mM DTT, 50 mM sodium acetate and 1 mM EDTA, pH 5.5. The incubations were performed at 37° C. for 24 h and digestions were stopped with protease inhibitor cocktail Complete according to the instructions of the manufacturer.

[7] = target: T7, recombinant rat TRAP (BacTRAP) (Rattus norvegicus, UniProt P29288); experiment: pNPP hydrolysis by untreated recombinant TRAP; format: biochemical
T7 construct: made in house
T7 sequence (P29288 23-327): T1 sequence (P29288 23-327)
Description: as §2, §4

[8] = test system: BacTRAP + Cath. B; experiment: pNPP hydrolysis by cathepsin B-digested recombinant TRAP; format: biochemical, rat
Description: as §2
as §4, with “A phosphate standard curve (0-nmol) was always run in parallel.” left out
(§5) Incubation was performed at room temperature for 1 h with the suspension kept well mixed during the reaction period. The proteolytic digestions above were stopped by centrifugation and the cleavage products of TRAP in the supernatant were further analyzed. […]

[9] = test system: BacTRAP + trypsin; experiment: pNPP hydrolysis by trypsin-digested recombinant TRAP; format: biochemical, rat
Description: as §2
as §4, with “A phosphate standard curve (0-nmol) was always run in parallel.” left out, “spectrophotometer. […]” for “spectrophotometer.”
as §5

[10] = Kcat/Km relative to pT = 1.0, BoneTRAP
[11] = Kcat/Km relative to pT = 1.0, BacTRAP

Compound: OPN: acidic phospho-seryl protein osteopontin purified from bovine milk
- Ratio Bone/Bac [1]: 17
- Ratio (BoneTRAP) [1, 10]: 2360
- Ratio (BacTRAP) [2, 11]: 1875

Compound: END[pY]INASL
- Ratio Bone/Bac [1]: 10
- Ratio (BoneTRAP) [1, 10]: 280
- Ratio (BacTRAP) [2, 11]: 375

Compound: N[C@@H](COP(=O)(O)O)C(=O)O [pS, phosphoserine]
- Ratio Bone/Bac [1]: 22
- Ratio (BoneTRAP) [1, 10]: 2.0
- Ratio (BacTRAP) [2, 11]: 1.2

Compound: DADE(pY)LIPQQG
- Ratio Bone/Bac [1]: 18
- Ratio (BoneTRAP) [1, 10]: 640
- Ratio (BacTRAP) [2, 11]: 475

Compound: O=C1O[C@H]([C@@H](O)CO)C(O)=C1O [ascorbate, ascorbic acid]
- effect of prolonged pre-incubation on TRAP activity [3]: did not show this tendency for inactivation
- effect of prolonged pre-incubation on TRAP activity ([4]; ascorbate 1 mM in the presence of 0.1 mM FeCl3): time-dependent inactivation
- time to maximal activation ([4]; pre-incubation with ascorbate 1 mM, 0.1 mM FeCl3): ≤ 10 min

Compound: O=[N+]([O-])c1ccc(OP(=O)(O)O)cc1 [pNPP, p-nitrophenylphosphate]
- Km [5]: 1 mM
- Km ([6]; pNPP hydrolysis, BacTRAP + papain): 1 mM
- increase in the ratio kcat/Km ([6]; papain-cleaved recombinant TRAP compared to untreated monomeric TRAP): 10 fold
- decrease in the Km for pNPP ([6]; papain-cleaved vs untreated recombinant TRAP): 3 fold
- optimal pH of pNPP hydrolysis ([6]; recombinant TRAP cleaved with papain): 5.5-6.0 pH
- Km ([7]; pNPP hydrolysis, BacTRAP untreated): 3.1 mM
- pH-optimum of pNPP hydrolysis ([7]; recombinant TRAP as isolated): 4.5-5.0 pH
- Km [8]: 900 µM
- Ratio (BoneTRAP) [1]: 690
- Ratio Bone/Bac [1]: 8.8
- Ratio (BacTRAP) [2]: 1075
- Km [9]: 2.1 mM

Compound: RRA[pT]VA
- Ratio Bone/Bac [1]: 5.0
- Ratio (BoneTRAP) [1, 10]: 10
- Ratio (BacTRAP) [2, 11]: 2.8

Compound: N[C@@H](Cc1ccc(OP(=O)(O)O)cc1)C(=O)O [pY, phosphotyrosine]
- Ratio Bone/Bac [1]: 19
- Ratio (BoneTRAP) [1, 10]: 350
- Ratio (BacTRAP) [2, 11]: 250

Compound: FRI[pS]HELDS
- Ratio Bone/Bac [1]: 15
- Ratio (BoneTRAP) [1, 10]: 15
- Ratio (BacTRAP) [2, 11]: 14

Compound: C[C@@H](OP(=O)(O)O)[C@H](N)C(=O)O [pT, Phosphothreonine]
- Ratio Bone/Bac [1]: 14
- Ratio (BoneTRAP) [1, 10]: 1.0
- Ratio (BacTRAP) [2, 11]: 1.0

Compound: EDEE[pS]EDEE
- Ratio Bone/Bac [1]: 4.2
- Ratio (BoneTRAP) [1, 10]: 15
- Ratio (BacTRAP) [2, 11]: 50
